Data on five compounds can be found in patent publication US9581598B2, “Diagnosis and treatment of brain tumor” (Sanford-Burnham Medical Research Institute, priority 2012, dated 2017).

The test system of data set [1] is i.c. U87MG tumor. More on the design: species or system mice. The following applies: mouse, in vivo. As for the experimental part:
The DTPA conjugated peptides (20 μg per animal) were mixed with 0.2 M NaAc (pH 5) and 5 MBq of ^111Indiumchloride (^111InCl3, Mallinckrodt, Le Petten, Netherlands) per animal was added to the mixture. The total volume of the solution was calculated to be 100 μl/animal. The reaction mixture was incubated for an hour at RT and the radiochemical purity was measured by using an instant thin-layer chromatography (ITLC-SG, Pall Corporation, USA) on a 13×1.5 cm strip using 0.3 M NaCit (pH 5) as a mobile phase. The radiochemical purity of the peptides was 99-100%.
The imaging studies were performed two weeks post U87MG tumor implantation. For SPECT/CT (single photon emission computed tomography-computed tomography) imaging animals were anesthetized with 1-3% isoflurane in N2/O2 at a 70:30 ratio. The radiolabeled peptide (100 μl) was injected into the tail vein followed by SPECT imaging using a combined small animal SPECT/CT (Gamma Medica Inc., Northridge, Calif.) with dual gamma camera modality. Medium energy parallel hole collimators were used in all gamma imaging with a 171/245/[…] keV energy window for ^111In. Planar two-dimensional imaging for all animals was performed at earliest possible time point after injection with 60 s acquisition time/image up to 30 minutes. For 3D imaging total of 64 projections, (120 s/projection) were used. The matrix size was 80×80 in 125×125 mm^2 field of view (FOV). […]
After the last imaging session animals were sacrificed with CO2 and tissue samples were collected. Major organs and tissues (blood, heart, lungs, liver, spleen, left kidney, duodenum, ovaries, fat, muscle, skin, brain and brain tumor) were weighed, and the radioactivity in each organ or tissue sample was measured in an automated gamma counter (Clinigamma, Turku, Finland). The counts obtained were corrected for the background radiation and physical decay, and tissue radioactivity was expressed as percentage of the injected dose per gram of tissue (% ID/g)±SD.

Data set [2] relates to astrocytomas overexpressing VEGF. The data set is described as follows: homing of fluorescein-labeled peptide after i.v. injection. The following applies: angiogenic vessels. It is filed as in vivo, mice. As for the experimental part: (§1) Athymic female Balb/c nu-nu mice (4-6 wks) from Taconic Europe were used in all tumor experiments. Establishment of the intracranial tumors has been described (Blouw et al., 2003). In brief, 50 000 HIFko, VEGF+, U87MG, U87-GFP, U87-MDGI-GFP or BT4C tumor cells in phosphate buffered saline (PBS) or DMEM were injected through the skull using a Hamilton syringe (no 84855), 2 mm right from the bregma at the depth of 3 mm in the brain parenchyma. Mice were used for some experiments 10-15 days after tumor cell inoculation. In experiments studying the role of MDGI in tumor progression and invasiveness, mice were used 10-21 days after tumor cell inoculation. To establish subcutaneous tumors, 2-5×10^6 cells were grafted subcutaneously on the abdominal side of the mice (in some experiments) or into the mammary fat pad, in other experiments. All animal studies were conducted according to the guidelines of the Provincial Government of Southern Finland and the protocol was approved by the Experimental Animal Committee.
(§2) Intravenously injected fluorescein-labeled peptides (100 μl of 1 mM solution) and antibodies (20 μg/animal) were allowed to circulate for one hour followed by perfusion through the heart with 10 ml of phosphate buffered saline (PBS) and 10 ml of 4% paraformaldehyde (PFA) in PBS. Tumors and organs were excised, PFA-fixed and soaked in 30% sucrose (w/v) overnight. Tissues were frozen in the OCT embedding medium (Tissue-Tek). Sections (5-10 μm) were cut for histological analyses. To detect the in vivo distribution of the fluorescein-labeled peptides, sections were stained with a rabbit anti-FITC antibody (Zymed Laboratories, San Francisco, USA). To visualize blood vessels, MDGI and tumor cells, sections were stained with the rat anti-mouse CD31 (BD Pharmingen), goat or rabbit anti-MDGI (Santa Cruz Biotechnology, USA), or a rabbit anti-SV40 large T antigen (a kind gift from Dr. Hanahan, ISREC, Switzerland) antibodies followed by the Alexa-594 and Alexa-488 conjugated secondary antibodies (Molecular Probes, Eugene, Oreg., USA). Nuclei were visualized with DAPI (Vector Laboratories, Burlingame). Sections were examined under an inverted fluorescence microscope (Axioplan).

The subject of data set [3] is intracranial U87MG human glioma xenografts. The description is as above. The following applies: intravenous injection. Type of data set: in vivo, mice. The method, then: as §1, §2
The subject of data set [4] is orthotopic MDA-MB-231 human breast cancer xenografts. The description is as above. Type of data set: in vivo, mice. The settings on record: intravenous injection; parental MDA-MB-231. As for the experimental part: as §1, §2
Data set [5] concerns rat BT4C glioma xenografts. The data set is described as above. The settings on record: intravenous injection. Type of data set: in vivo, mice. As for the experimental part:
as §1, §2

In data set [6] the test system is tumors established from the HIFko cells implanted subcutaneously. Described as above. The following applies: subcutaneous HIFko tumors. It is filed as in vivo, mice. As for the experimental part: as §1, §2
Data set [7] concerns MDGI-expressing MDA-MB-231 xenografts. Described as above. It is filed as in vivo, mice. The method, then: as §2
To obtain an MDA-MB-231 breast tumor cell line stably expressing the MDGI as a c-Myc fusion protein, cells were transfected with the pcDNA3-9E10-MDGI plasmid as described herein. […]

The subject of data set [8] is HifKO murine astrocytoma cells. The data set is described as follows: targeted treatment of tumor bearing mice. It is filed as in vivo. The settings on record: day 14. As for the experimental part: Immunocompromised (Balb/c nu/nu) mice were implanted with HifKO murine astrocytoma cells (Blouw et al. 2003). Treatment with saline (PBS), free chlorambusil (Cbl) and targeted drug (chlorambusil conjugated to CooP peptide; CooP—CPP-Cbl, 5 mg/kg) was started at day 5 post-implantation and continued every second day until day 14.

The test system of data set [9] is i.c HIFko astrocytoma. The data set is described as follows: tissue localization of fluorescein-labeled peptide after i.v. injection. Type of data set: in vivo, mice. As for the experimental part:
as §1
Intravenously injected fluorescein-labeled peptides ([…]) and antibodies (20 μg/animal) were allowed to circulate for one hour followed by perfusion through the heart with 10 ml of phosphate buffered saline (PBS) and 10 ml of 4% paraformaldehyde (PFA) in PBS. Tumors and organs were excised, PFA-fixed and soaked in 30% sucrose (w/v) overnight. Tissues were frozen in the OCT embedding medium (Tissue-Tek). Sections (5-10 μm) were cut for histological analyses. To detect the in vivo distribution of the fluorescein-labeled peptides, sections were stained with a rabbit anti-FITC antibody (Zymed Laboratories, San Francisco, USA). […] Sections were examined under an inverted fluorescence microscope (Axioplan).

“Also recorded” adds a separate entry of the source. Where a SMILES comes first, the peptide text is derived from it. The star is where a group is joined. DTPA(central) = O=C(O)CN(CCN(CCN(CC(=O)O)CC(=O)O)CC(=O)*)CC(=O)O; FITC = O=C1OC2(c3ccc(O)cc3Oc3cc(O)ccc32)c2ccc(NC(=S)*)cc21

As for `CC(C)C[C@H](NC(=O)CNC(=O)[C@H](CO)NC(=O)[C@H](CC(C)C)NC(=O)CNC(=O)[C@H](CS)NC(=O)[C@H](C)NC(=O)CN(CCN(CC(=O)O)CC(=O)O)CCN(CC(=O)O)CC(=O)O)C(=O)NCC(=O)N[C@H](C(=O)N[C@@H](C)C(N)=O)C(C)C` [^111In-CooP, metal not drawn] ({DTPA(central)}-ACGLSGLGVA-NH2), the “tumor half to healthy brain half ratio” value in data set [1] is reported as “up to 20:1”. The plasma clearance result in data set [1] (iv, 20 ug) was “rapid”.
Take `CC(C)C[C@H](NC(=O)[C@H](C)NC(=O)[C@H](C)NC(=O)[C@@H](NC(=O)[C@H](CS)NC(=O)[C@H](C)NC(=O)CN(CCN(CC(=O)O)CC(=O)O)CCN(CC(=O)O)CC(=O)O)C(C)C)C(=O)N[C@@H](CC(N)=O)C(=O)N[C@@H](C)C(=O)N[C@@H](CC(=O)O)C(=O)NCC(N)=O` [^111In-labeled control peptide, NH2-ACVAALNADG-CONH2, metal not drawn, reference compound]: in data set [1], the “accumulation in the tumor tissue” value is “No accumulation”.
For “NH2-ACGLSGLGVA-CONH2 (H-ACGLSGLGVA-NH2) [CooP peptide, core …]”, the homing to tumor result in [2] was “did not home”; in data set [3], “homed efficiently”; in data set [5], “to a lesser yet detectable extent”; in [6], “did not home”; in data set [7], “homed with high efficiency”. Also, in data set [4], the “peptide detected in tumor” value was “No CooP peptide was detected; also recorded: only negligible amount of the peptide was detected”.
For the compound `O=C(O)CCCc1ccc(N(CCCl)CCCl)cc1` [chlorambusil], the “condition of the animals at end of experiment” value in data set [8] is recorded as “poor condition of the animals”.
For “FITC-CooP: synthetic CooP peptide conjugated to fluorescein (Ac-K(FITC)ACGLSGLGVA-NH2)”, the “peptide localization in tumor” value in data set [9] (100 μM, 100 μl/animal i.v., 60 minutes circulation) is given as “accumulated in the tumor islets in the brain”. Also, the “peptide-derived fluorescence in the kidneys and the choroid plexus” value in data set [9] (i.v.) is on record as “Some peptide-derived fluorescence was observed”. Moreover, in [9] (i.v., 60 minutes circulation), the “peptide in surrounding histologically normal brain or other tissues” value was “not detected”.
